{
  "source": "patent US20230371507A1",
  "about": "(priority 2020, published 2023)",
  "key": {"P. infestans": {"test_system": "P. infestans", "format": "cell-based, Phytophthora infestans"}, "[1]": {"test_system": "Phytophthora infestans strain Pi61", "format": "in vivo", "settings": "in methanol, applied at 150 g/ha; Shirlan applied at 200 g/ha (FIGS. 10a, 10b)"}, "[2]": {"test_system": "Puccinia triticina strain BT06M215", "experiment": "in planta intensity of infection of wheat leaves by Puccinia triticina", "format": "in vivo", "text": "This experiment illustrates the effect of the crude extract (YE) of P. aphidis, synthetic (E)-2-octyl-2-pentenedioic acid (PA), extracted 2-octyl-2 pentenedioic acid from Pseudozyma aphidis in methanol, Rhapsody® (Bacillus subtilis) and Amistart (azoxystrobin) at 0.1% on the intensity of infection of wheat leaf fragments by uredospores of Puccinia triticina strain BT06M215. Rhapsody® (Bacillus subtilis) and Amistar® (azoxystrobin) are commercially available fungicidal solutions. P. titicina strain BT06M215 was isolated from untreated wheat leaves in France.\nAll fungicidal products were prepared in a volume of water corresponding to 200 L/ha. […]\nFor each experimental condition tested, 18 replicates of one wheat leaf were tested. […] Disease assessment (intensity of infection) on the first leaf of each wheat plantlets is monitored at 8 to 15 days post inoculation."}, "[3]": {"test_system": "Zymoseptoria tritici strain Mg Tri-R6", "format": "in vivo", "settings": "wheat; in methanol, applied at 100 gr/ha; Proline applied at 0.8 L/ha (FIGS. 7a, 7b)"}, "B. cinerea [4]": {"test_system": "B. cinerea", "experiment": "bio-assay in liquid medium (PDB) with B. cinerea as indicator strain", "format": "cell-based, Botrytis cinerea", "settings": "at both a pH of 3 and a pH of 5 (FIG. 1)", "procedure": "2-octyl-2 pentenedioic acid was also evaluated for antifungal activity using bio-assay in liquid medium using B. cinerea as an indicator strain. The bio-assay was carried out in PDB liquid medium.\nThe bio-assay for determination of antifungal activity was set-up based on the procedure as described in Stammler and Speakman, 2006. Microtiter Method to Test the Sensitivity of Botrytis cinerea to Boscalid. Journal of Phytopathology, 154, 7-8, p 508-510. This bio-assay is based on dilution of the antimicrobial agent and determination of growth inhibition of a sensitive indicator strain, in this case Botrytis cinerea. The bio-assay was performed in 96-well microtiter plates and included micro-dilutions of the antimicrobial agent in a liquid growth medium, where each well was inoculated with a standardized number of fungal spores of the indicator strain. After incubation (no agitation, 18° C. in darkness for 5 days), the results were obtained by measurement of fungal growth by photometer at 405 nm and the values were corrected by comparison with the blanks (cultures without the antimicrobial compound). The ED (effective dose) values are compared with reference standard fungicides."}, "B. cinerea [5]": {"test_system": "B. cinerea", "experiment": "bio-assay with tomato leaves against B. cinerea", "format": "in vivo, Botrytis cinerea", "text": "The untreated control (#2, only 70% ethanol) was taken as a reference for the maximal infection rate."}},
  "note": "Read-outs that look alike come from different tables or passages of the source.",
  "data": [
    {"smiles": "CCCCCCCC/C(=C\\CC(=O)O)C(=O)O", "note": "[2-octyl-2 pentenedioic acid (synthetic), (E)-2-octyl-2-pentenedioic acid]", "values": [
      {"measurement": "ED90", "setting": "P. infestans; pH 4.6, V8 juice liquid media", "result": 41, "unit": "ppm"},
      {"measurement": "ED90", "setting": "P. infestans; pH 6.2, V8 juice liquid media", "result": 42, "unit": "ppm"},
      {"measurement": "ED90", "setting": "P. infestans; pH 8.0, V8 juice liquid media", "result": "Not detected"},
      {"measurement": "efficacy against Phytophthora infestans compared to Shirlan (fluazinam)", "setting": "[1]", "result": "comparable efficacy"},
      {"measurement": "efficacy against Puccinia triticina compared to Rhapsody", "setting": "[2]; Rhapsody applied at 2.0 L/ha (FIGS. 3a, 3b)", "result": "comparable efficacy"}
    ]},
    {"smiles": "CCCCCCCCC(=CCC(=O)O)C(=O)O", "note": "[2-octyl-2 pentenedioic acid]", "values": [
      {"measurement": "efficacy against Zymoseptoria tritici compared to Proline", "setting": "[3]", "result": "comparable efficacy"},
      {"measurement": "ED90", "setting": "P. infestans; pH 4.6, V8 juice liquid media", "result": 37, "unit": "ppm"},
      {"measurement": "ED90", "setting": "P. infestans; pH 6.2, V8 juice liquid media", "result": 41, "unit": "ppm"},
      {"measurement": "ED90", "setting": "P. infestans; pH 8.0, V8 juice liquid media", "result": "Not detected"},
      {"measurement": "efficacy against B. cinerea", "setting": "B. cinerea [4]", "result": "excellent efficacy"},
      {"measurement": "efficacy against Puccinia triticina compared to Amistar", "setting": "[2]; in methanol, applied at 100 g/ha, Amistar applied at 1 L/ha (FIGS. 4a, 4b)", "result": "comparable efficacy"}
    ]},
    {"smiles": "CC(=O)O", "note": "[Sample 3, Acetic acid]", "values": [
      {"measurement": "effect on B. cinerea infection (in words)", "setting": "B. cinerea [5]", "result": "inhibited B. cinerea infection"}
    ]}
  ]
}
